Results published in PubChem BioAssay AID1259411 (Chemical Carcinogenesis Research Information System (CCRIS), 2018).
Active and inactive are the calls of the source. The rule behind the calls is not given here.

Tested on: rodent carcinogenicity bioassays, tumor incidence
Assay: CCRIS carcinogenicity studies
Settings: Route: INHALATION
Outline: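 Archive of carcinogenicity, mutagenicity, tumor promotion and tumor inhibition results drawn from journals, NCI reports and other sources, expert-reviewed; covers 1985-2011 and is no longer updated.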

With `C=CC=C` the carcinogen call (Species: MOUSE, Strain/Sex: B6C3F1/FEMALE, Dose: 0, 6.25, 20, 62.5, 200, 625 PPM 6 HR/D 5 D/WK FOR 2 YR (STUDY DURATION: 2 YR), Dose: 0, 6.25, 20, 62.5, 200, 625 PPM 6 HR/D 5 D/WK FOR 2 YR (STUDY DURATION: 2 YR), Tumor Site: Type of Lesion: HARDERIAN GLAND: ADENOMA OR ADENOCARCINOMA, LIVER: HEPATOCELLULAR CARCINOMA, MAMMARY GLAND: ADENOCARCINOMA, OVARIES: GRA, Tumor Site: Type of Lesion: HARDERIAN GLAND: ADENOMA OR ADENOCARCINOMA, LIVER: HEPATOCELLULAR CARCINOMA, MAMMARY GLAND: ADENOCARCINOMA, OVARIES: GRA) was “active; positive”, the carcinogen call (Species: MOUSE, Strain/Sex: B6C3F1/FEMALE, Dose: 0, 6.25, 20, 62.5, 200, 625 PPM 6 HR/D 5 D/WK FOR 2 YR (STUDY DURATION: 2 YR), Dose: 0, 6.25, 20, 62.5, 200, 625 PPM 6 HR/D 5 D/WK FOR 2 YR (STUDY DURATION: 2 YR), Tumor Site: Type of Lesion: HEMATOPOIETIC SYSTEM: LYMPHOCYTIC LYMPHOMA, LYMPHOMA, BLOOD VESSELS: HEMANGIOSARCOMA, LUNG: ALVEOLAR/BRONCHIOLAR TUMOR;, Tumor Site: Type of Lesion: HEMATOPOIETIC SYSTEM: LYMPHOCYTIC LYMPHOMA, LYMPHOMA, BLOOD VESSELS: HEMANGIOSARCOMA, LUNG: ALVEOLAR/BRONCHIOLAR TUMOR) was “active; positive” and the carcinogen call (Species: MOUSE, Strain/Sex: B6C3F1/FEMALE, Dose: 0, 6.25, 20, 62.5, 200, 625 PPM 6 HR/D 5 D/WK FOR 103 WK (STUDY DURATION: 2 YR), Dose: 0, 6.25, 20, 62.5, 200, 625 PPM 6 HR/D 5 D/WK FOR 103 WK (STUDY DURATION: 2 YR), Tumor Site: Type of Lesion: HEART: HEMANGIOSARCOMA, LUNG: ALVEOLAR/BRONCHIOLAR ADENOMA, ADENOCARCINOMA OR CARCINOMA, FORESTOMACH: SQUAMOUS CELL PAPI, Tumor Site: Type of Lesion: HEART: HEMANGIOSARCOMA, LUNG: ALVEOLAR/BRONCHIOLAR ADENOMA, ADENOCARCINOMA OR CARCINOMA, FORESTOMACH: SQUAMOUS CELL PAPI) was “active; positive”. The carcinogen call (Species: MOUSE, Strain/Sex: B6C3F1/FEMALE, Dose: 0, 6.25, 20, 62.5, 200 PPM 6 HR/D 5 D/WK FOR 65 WK (STUDY DURATION: 104 WK), Dose: 0, 6.25, 20, 62.5, 200 PPM 6 HR/D 5 D/WK FOR 65 WK (STUDY DURATION: 104 WK), Tumor Site: Type of Lesion: HEART: HEMANGIOSARCOMA, LUNG: ALVEOLAR/BRONCHIOLAR TUMOR, MAMMARY GLAND: ADENOCARCINOMA, OVARY: GRANULOSA CELL TUMOR, Tumor Site: Type of Lesion: HEART: HEMANGIOSARCOMA, LUNG: ALVEOLAR/BRONCHIOLAR TUMOR, MAMMARY GLAND: ADENOCARCINOMA, OVARY: GRANULOSA CELL TUMOR) was “active; positive”, the carcinogen call (Species: MOUSE, Strain/Sex: B6C3F1/FEMALE, Dose: 0, 1000, 5000, 10000 PPM FOR 2 HR ONCE (STUDY DURATION: 2 YR), Dose: 0, 1000, 5000, 10000 PPM FOR 2 HR ONCE (STUDY DURATION: 2 YR)) was “inactive; negative” and the carcinogen call (Species: MOUSE, Strain/Sex: B6C3F1/FEMALE, Dose: 625, 1250 PPM 6 HR/D 5/WK FOR 61 WK, Tumor Site: Type of Lesion: LYMPHATIC SYSTEM: MALIGNANT LYMPHOMA, LUNG: ALVEOLAR/BRONCHIOLAR ADENOMA, CARCINOMA, MYOCARDIUM: HEMANGIOSARCOMA, FOREST, Tumor Site: Type of Lesion: LYMPHATIC SYSTEM: MALIGNANT LYMPHOMA, LUNG: ALVEOLAR/BRONCHIOLAR ADENOMA, CARCINOMA, MYOCARDIUM: HEMANGIOSARCOMA, FOREST) was “active; positive”. For the same compound, the carcinogen call (Species: MOUSE, Strain/Sex: B6C3F1/MALE, Dose: 0, 6.25, 20, 62.5, 200, 625 PPM 6 HR/D 5 D/WK FOR 2 YR (STUDY DURATION: 2 YR), Dose: 0, 6.25, 20, 62.5, 200, 625 PPM 6 HR/D 5 D/WK FOR 2 YR (STUDY DURATION: 2 YR), Tumor Site: Type of Lesion: HEMATOPOIETIC SYSTEM: LYMPHOCYTIC LYMPHOMA, LYMPHOMA, BLOOD VESSELS: HEMANGIOSARCOMA, LUNG: ALVEOLAR/BRONCHIOLAR TUMOR;, Tumor Site: Type of Lesion: HEMATOPOIETIC SYSTEM: LYMPHOCYTIC LYMPHOMA, LYMPHOMA, BLOOD VESSELS: HEMANGIOSARCOMA, LUNG: ALVEOLAR/BRONCHIOLAR TUMOR) was “active; positive”, the carcinogen call (Species: MOUSE, Strain/Sex: B6C3F1/MALE, Dose: 0, 6.25, 20, 62.5, 200, 625 PPM 6 HR/D 5 D/WK FOR 2 YR (STUDY DURATION: 2 YR), Dose: 0, 6.25, 20, 62.5, 200, 625 PPM 6 HR/D 5 D/WK FOR 2 YR (STUDY DURATION: 2 YR), Tumor Site: Type of Lesion: PREPUTIAL GLAND: ADENOMA OR CARCINOMA, LIVER: HEPATOCELLULAR TUMOR, HARDERIAN GLAND: TUMOR, Tumor Site: Type of Lesion: PREPUTIAL GLAND: ADENOMA OR CARCINOMA, LIVER: HEPATOCELLULAR TUMOR, HARDERIAN GLAND: TUMOR) was “active; positive” and the carcinogen call (Species: MOUSE, Strain/Sex: B6C3F1/MALE, Dose: 0, 6.25, 20, 62.5, 200, 625 PPM 6 HR/D 5 D/WK FOR 103 WK (STUDY DURATION: 2 YR), Dose: 0, 6.25, 20, 62.5, 200, 625 PPM 6 HR/D 5 D/WK FOR 103 WK (STUDY DURATION: 2 YR), Tumor Site: Type of Lesion: HEART: HEMANGIOSARCOMA, LUNG: ALVEOLAR/BRONCHIOLAR ADENOMA, ADENOCARCINOMA OR CARCINOMA, FORESTOMACH: SQUAMOUS CELL PAPI, Tumor Site: Type of Lesion: HEART: HEMANGIOSARCOMA, LUNG: ALVEOLAR/BRONCHIOLAR ADENOMA, ADENOCARCINOMA OR CARCINOMA, FORESTOMACH: SQUAMOUS CELL PAPI) was “active; positive”. The carcinogen call (Species: MOUSE, Strain/Sex: B6C3F1/MALE, Dose: 0, 6.25, 20, 62.5, 200 PPM, 6 HR/D 5 D/WK FOR 65 WK (STUDY DURATION: 104 WK), Dose: 0, 6.25, 20, 62.5, 200 PPM, 6 HR/D 5 D/WK FOR 65 WK (STUDY DURATION: 104 WK), Tumor Site: Type of Lesion: HEART: HEMANGIOSARCOMA, LUNG: ALVEOLAR/BRONCHIOLAR TUMOR, HARDERIAN GLAND: ADENOMA, Tumor Site: Type of Lesion: HEART: HEMANGIOSARCOMA, LUNG: ALVEOLAR/BRONCHIOLAR TUMOR, HARDERIAN GLAND: ADENOMA) was “active; positive”, the carcinogen call (Species: MOUSE, Strain/Sex: B6C3F1/MALE, Dose: 0, 200 PPM 6 HR/D 5 D/WK FOR 40 WK, 625 PPM FOR 13 WK, 312 PPM FOR 52 WK OR 625 PPM FOR 26 WK FOLLOWED BY CONTROL CHAMBE, Dose: 0, 200 PPM 6 HR/D 5 D/WK FOR 40 WK, 625 PPM FOR 13 WK, 312 PPM FOR 52 WK OR 625 PPM FOR 26 WK FOLLOWED BY CONTROL CHAMBE, Tumor Site: Type of Lesion: HEART: HEMANGIOSARCOMA, LUNG: ALVEOLAR/BRONCHIOLAR ADENOMA, ADENOCARCINOMA OR CARCINOMA, FORESTOMACH: SQUAMOUS CELL PAPI, Tumor Site: Type of Lesion: HEART: HEMANGIOSARCOMA, LUNG: ALVEOLAR/BRONCHIOLAR ADENOMA, ADENOCARCINOMA OR CARCINOMA, FORESTOMACH: SQUAMOUS CELL PAPI) was “active; positive” and the carcinogen call (Species: MOUSE, Strain/Sex: B6C3F1/MALE, Dose: 0, 1000, 5000, 10000 PPM FOR 2 HR ONCE (STUDY DURATION: 2 YR), Dose: 0, 1000, 5000, 10000 PPM FOR 2 HR ONCE (STUDY DURATION: 2 YR)) was “inactive; negative”. For the same compound, the carcinogen call (Species: MOUSE, Strain/Sex: B6C3F1/MALE, Dose: 625, 1250 PPM 6 HR/D 5/WK FOR 60 WK, Tumor Site: Type of Lesion: LYMPHATIC SYSTEM: MALIGNANT LYMPHOMA, LUNG: ALVEOLAR/BRONCHIOLAR ADENOMA, CARCINOMA, MYOCARDIUM: HEMANGIOSARCOMA, FOREST, Tumor Site: Type of Lesion: LYMPHATIC SYSTEM: MALIGNANT LYMPHOMA, LUNG: ALVEOLAR/BRONCHIOLAR ADENOMA, CARCINOMA, MYOCARDIUM: HEMANGIOSARCOMA, FOREST) was “active; positive”, the carcinogen call (Species: RAT, Strain/Sex: SPRAGUE-DAWLEY/FEMALE, Dose: 0, 1000, 8000 PPM 6 HR/D 5 D/WK FOR 105 WK (STUDY DURATION: 105 WK), Dose: 0, 1000, 8000 PPM 6 HR/D 5 D/WK FOR 105 WK (STUDY DURATION: 105 WK), Tumor Site: Type of Lesion: UTERUS: SARCOMA, MAMMARY GLAND: ADENOMA, ZYMBAL GLAND: CARCINOMA, THYROID GLAND: FOLLICULAR CELL ADENOMA, Tumor Site: Type of Lesion: UTERUS: SARCOMA, MAMMARY GLAND: ADENOMA, ZYMBAL GLAND: CARCINOMA, THYROID GLAND: FOLLICULAR CELL ADENOMA) was “active; positive” and the carcinogen call (Species: RAT, Strain/Sex: SPRAGUE-DAWLEY/MALE, Dose: 0, 1000, 8000 PPM 6 HR/D 5 D/WK FOR 111 WK (STUDY DURATION: 111 WK), Dose: 0, 1000, 8000 PPM 6 HR/D 5 D/WK FOR 111 WK (STUDY DURATION: 111 WK), Tumor Site: Type of Lesion: PANCREAS: ACINAR CELL ADENOMA, TESTES: LEYDIG CELL TUMOR) was “active; positive”.
